Test results reported in US10179153B2, “Probiotic and prebiotic compositions” (AQUILON CYL SOCIEDAD LIMITADA, priority 2014, dated 2019).
Values after ≈ are worked out from the molar mass of the structure shown.

Key:
AqSynJ59 strain [1] = test: In vitro test of minimal inhibitory concentration (MIC) of antibiotics; assay type: cell-based, Lactobacillus plantarum; conditions: for MIC, LSM: LAB susceptibility test medium pH 6.7, unit assumed; for Category: MIC compared with EFSA cut-off
Method: An in vitro test of minimal inhibitory concentration (MIC) aimed to evaluate antibiotic resistances was performed for the above strains (AqSynJ59 and […]69). […] The microbiological cut-off values that were used for evaluating the antibiotic resistances of the strains of the present invention are the ones defined in the “Guidance on the assessment of bacterial susceptibility to antimicrobials of human and veterinary importance”, EFSA Panel on Additives and Products or Substances used in Animal Feed ([…]), European Food Safety Authority (EFSA), Parma, Italy.

AqSynRMH69 strain [2] = test: as above; assay type: cell-based, Lactobacillus reuteri; conditions: for MIC, LSM: LAB susceptibility test medium pH 6.7, unit assumed; for Category: MIC compared with EFSA cut-off
Method: The evaluated antibiotics may be the following: Ampicillin, Vancomicin, Gentamicin, Kanamycin, Streptomycin, Eritromycin, Clindamycin, Tetracyclin and Chloranphenicol. An in vitro test of minimal inhibitory concentration (MIC) aimed to evaluate antibiotic resistances was performed for the above strains (AqSynJ59 and […]69). The evaluated antibiotics were the following: Ampicillin, Vancomicin, Gentamicin, Kanamycin, Streptomycin, Clindamycin, Tetracyclin and Chloranphenicol. The microbiological cut-off values that were used for evaluating the antibiotic resistances of the strains of the present invention are the ones defined in the “Guidance on the assessment of bacterial susceptibility to antimicrobials of human and veterinary importance”, EFSA Panel on Additives and Products or Substances used in Animal Feed ([…]), European Food Safety Authority (EFSA), Parma, Italy.

AqSynJ59 strain [3] = conditions: cut-off used for AqSynJ59 (Lactobacillus plantarum); cited from earlier work
AqSynRMH69 strain [4] = conditions: cut-off used for AqSynRMH69 (Lactobacillus reuteri); cited from earlier work

| Compound | MIC, LSM (AqSynJ59 strain [1]) [µg/mL] | MIC, LSM (AqSynRMH69 strain [2]) [µg/mL] | Category (AqSynRMH69 strain [2]) | Category (AqSynJ59 strain [1]) | EFSA (2012) values (microbiological cut-off) (AqSynJ59 strain [3]) | EFSA (2012) values (microbiological cut-off) (AqSynRMH69 strain [4]) |
| --- | --- | --- | --- | --- | --- | --- |
| CN[C@H](CC(C)C)C(=O)N[C@H]1C(=O)N[C@@H](CC(N)=O)C(=O)N[C@H]2C(=O)N[C@H]3C(=O)N[C@H](C(=O)N[C@H](C(=O)O)c4cc(O)cc(O)c4-c4cc3ccc4O)[C@H](O)c3ccc(c(Cl)c3)Oc3cc2cc(c3O[C@@H]2O[C@H](CO)[C@@H](O)[C@H](O)[C@H]2O[C@H]2C[C@](C)(N)[C@H](O)[C@H](C)O2)Oc2ccc(cc2Cl)[C@H]1O [Vancomycin] | 512 (≈ 353 µM) | 512 (≈ 353 µM) | R | – | – | – |
| O=C(N[C@H](CO)[C@H](O)c1ccc([N+](=O)[O-])cc1)C(Cl)Cl [Chloramphenicol] | 2 (≈ 6.19 µM) | 2 (≈ 6.19 µM) | S | S | 8 | 4 |
| CC1(C)S[C@@H]2[C@H](NC(=O)[C@H](N)c3ccccc3)C(=O)N2[C@H]1C(=O)O [Ampicillin] | – | 0.25 (≈ 0.715 µM) | S | – | 2 | 2 |
| CN(C)[C@@H]1C(O)=C(C(N)=O)C(=O)[C@@]2(O)C(O)=C3C(=O)c4c(O)cccc4[C@@](C)(O)[C@H]3C[C@@H]12 [Tetracycline] | 4 (≈ 9 µM) | 4 (≈ 9 µM) | S | S | – | – |
| [H]/N=C(/N)N[C@H]1[C@H](O)[C@@H](O)[C@H](O[C@@H]2O[C@@H](C)[C@](O)(C=O)[C@H]2O[C@@H]2O[C@@H](CO)[C@H](O)[C@@H](O)[C@@H]2NC)[C@@H](N/C(N)=N\[H])[C@@H]1O [Streptomycin] | 32 (≈ 55 µM) | 32 (≈ 55 µM) | S | – | – | 64 |
| CCC[C@@H]1C[C@@H](C(=O)N[C@@H]([C@H]2O[C@H](SC)[C@H](O)[C@@H](O)[C@H]2O)[C@H](C)Cl)N(C)C1 [Clindamycin] | 0.125 (≈ 0.294 µM) | 0.125 (≈ 0.294 µM) | S | S | – | – |
| NC[C@H]1O[C@H](O[C@H]2[C@H](O)[C@@H](O[C@H]3O[C@H](CO)[C@@H](O)[C@H](N)[C@H]3O)[C@H](N)C[C@@H]2N)[C@H](O)[C@@H](O)[C@@H]1O [Kanamycin] | 64 (≈ 132 µM) | 64 (≈ 132 µM) | S | S | – | – |
| Gentamicin | 1 | 2 | S | S | 16 | 8 |
